According to PubChem BioAssay AID651676 (Sanford-Burnham Center for Chemical Genomics, 2012):
Activity calls are given as the source filed them.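 The calls were made as follows: active = EC50 concentration giving half the maximal stem cell survival boost at or below 20 µM; inactive = the rest.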

system: hiPSC single-cell survival, ATPlite luminescence; experiment: enhancers of single-cell hiPSC survival, SAR follow-up, luminescence (AID 651676)

Q: Which EC50 does the source give for O=C(OCn1ncc(Cl)c(Cl)c1=O)c1cccc(C(F)(F)F)c1 here?
A: 21.6 µM (inactive)

Q: With NC(=O)c1ccc(NC(=O)CCC(=O)c2cccs2)cc1 as the compound, how does the EC50 read?
A: 10.5 µM

Q: How did the EC50 turn out when O=S(=O)(c1cccc2cnccc12)N1CCCNCC1 was run?
A: 7.12 µM

Q: Which EC50 does the source give for COc1ccc(CS(=O)(=O)/C(Cl)=C(/Cl)C(=O)Nc2ccc(OC)nc2)cc1 here?
A: 14.1 µM

Q: CC(C)n1c(O)c(C2c3cc(Cl)ccc3Oc3[nH]c(=O)n(C(C)C)c(=O)c32)c(=O)[nH]c1=O (stereo not drawn) was tested. Which EC50 did it give?
A: 42.3 µM (inactive)

Q: How did the EC50 turn out when CC(C)NC(=O)c1ccc2c(c1)S(=O)(=O)c1ccccc1C2=O was run?
A: > 80 µM (inactive)

Q: For O=C(Nc1ccncc1)c1cc(S(=O)(=O)N2CCCC2)ccc1Cl, which EC50 is on record?
A: 20.6 µM (inactive)

Q: How did the EC50 turn out when O=C(Nc1nc(-c2ccncc2)cs1)C1COc2ccccc2O1 (stereo not drawn) was run?
A: 3.63 µM

Q: For O=C(Nc1ccncc1)c1cc(S(=O)(=O)N2CCOCC2)ccc1Cl, which EC50 is on record?
A: 26.3 µM (inactive)

Q: How did the EC50 turn out when COc1ccc(Cn2c(O)c(C=NCCCn3ccnc3)c(=O)[nH]c2=O)cc1 was run?
A: > 80 µM (inactive)

Q: For O=C(OCn1ncc(Br)c(Br)c1=O)c1ccccc1Cl, which EC50 is on record?
A: 6.27 µM

Q: How did the EC50 turn out when Cn1c(=O)c2c(ncn2CC(=O)NCc2cccnc2)n(C)c1=O was run?
A: > 80 µM (inactive)

Q: For COc1ccc(NC(=O)/C(Cl)=C(/Cl)S(=O)(=O)Cc2ccc(C)cc2)cn1, which EC50 is on record?
A: 16.6 µM
